Measured values from patent US20250205350A1, “Antibody-Drug Conjugates and Uses Thereof” (Vivasor, Inc., priority 2022, published 2025).

How the values were obtained:
SkBr-3 (Her2+) = test: In vitro cell viability (CellTiter-Glo) of camptothecin derivatives in SkBr-3; type: cell-based, human; conditions: 120-hour assay
Protocol: (§1) The in vitro efficacies of camptothecin derivatives were evaluated using the following human cancer cell lines: SkBr-3 (Her2+) and MDA-MB-468 (HER2−), purchased from the American Type Culture Collection (ATCC; Manassas, VA) and were routinely cultured in DMEM/F-12 medium (Catalog #10-090-CV; Corning) supplemented with 10% fetal bovine serum (FBS; Catalog #MT35011CV; Corning) and 1× Penicillin-Streptomycin (Catalog #30-002-CI; Corning) and maintained at 37° C. with 5% CO2 in a humidified environment.
(§2) Tumor cells were harvested by detachment with cell stripper. Viable cell counts were made by Trypan blue exclusion using a Countess or Countess II automated cell counter. Cell Viability Assay: All cells were harvested and seeded into 384-well white wall clear bottom plates (Catalog #3765; Corning) at a density of 875 cells/well in DMEM/F-12 medium supplemented with 10% fetal bovine serum and 1× Penicillin-Streptomycin (complete growth media). Plates were maintained at 37° C. for 4-6 hours to allow cells to adhere to the plate. The outer wells of plates contained complete growth medium only and were used for background subtraction for the cell viability assay. Working solutions of test articles were prepared at 2× final concentrations with 5-fold serial dilutions in complete growth medium. Cell treatment was performed in triplicates and maintained at 37° C. for 120-hour assay. After treatment, cell viability was determined by CellTiter-Glo 2.0 assay (Catalog #G9243; Promega; Madison, WI, USA) based on the manufacturer's instructions. CellTiter Glo reagent reacts with ATP in metabolically active cells to give a luminescent readout that is directly proportional to the number of viable cells. Briefly, plates were removed from the incubator and equilibrated to room temperature before addition of CellTiter Glo reagent. Luminescence was measured using a Tecan Spark microplate reader (Tecan; Mannedorf, Switzerland).
(§3) For Cytotoxicity assays, raw luminescence data was background subtracted with average luminescence from the outer wells containing medium only and normalized to untreated controls using Excel (Microsoft; […]). Dose-response relationships and EC50 values were determined based on non-linear regression analysis of normalized data fit to a four-parameter logistic equation using GraphPad Prism 8.0.

MDA-MB-468 (HER2−) = test: In vitro cell viability (CellTiter-Glo) of camptothecin derivatives in MDA-MB-468; type: cell-based, human; conditions: 120-hour assay
Protocol: as §1, §2, §3

HER2-positive SkBr-3 = test: In vitro cell viability (CellTiter-Glo) of anti-HER2 ADCs in SkBr-3; type: cell-based; conditions: Homo sapiens, SK-BR-3, 120 h, Table 6; 120-hour assay
Protocol: as §1, with “ADCs” for “The in vitro efficacies of camptothecin derivatives”, “HER2-positive SkBr-3, HER2-positive NCI-N87,” for “SkBr-3 (Her2+)”, “HER2-negative MDA-MB-468,” for “MDA-MB-468 (HER2−),”, “#[…];” for “#10-090-CV;”
(§4) Tumor cells were harvested by detachment with cell stripper. Viable cell counts were made by Trypan blue exclusion using a Countess or Countess II automated cell counter. […] After treatment, cell viability was determined by CellTiter-Glo 2.0 assay (Catalog #G9243; Promega; Madison, WI, USA) based on the manufacturer's instructions. CellTiter Glo reagent reacts with ATP in metabolically active cells to give a luminescent readout that is directly proportional to the number of viable cells. […] Luminescence was measured using a Tecan Spark microplate reader (Tecan; Mannedorf, Switzerland).
(§5) For Cytotoxicity assays, raw luminescence data was background subtracted with average luminescence from the outer wells containing medium only and normalized to untreated controls using Excel (Microsoft; Albuquerque, NM). […]

HER2-negative MDA-MB-468 = test: In vitro cell viability (CellTiter-Glo) of anti-HER2 ADCs in MDA-MB-468; type: cell-based; conditions: Homo sapiens, MDA-MB-468, 120 h, 120-hour assay
Protocol: as §1, with “ADCs” for “The in vitro efficacies of camptothecin derivatives”, “HER2-positive SkBr-3, HER2-positive NCI-N87,” for “SkBr-3 (Her2+)”, “HER2-negative MDA-MB-468,” for “MDA-MB-468 (HER2−),”, “#[…];” for “#10-090-CV;”
as §4, §5

[1] = Table 4A, derivatives as TFA salt, exatecan mesylate
[2] = Homo sapiens, SK-BR-3, 120 h, Table 4A, derivatives as TFA salt, exatecan mesylate
[3] = Homo sapiens, MDA-MB-468, 120 h, Table 4A, derivatives as TFA salt, exatecan mesylate
[4] = Homo sapiens, SK-BR-3, 120 h, Table 4B
[5] = Homo sapiens, MDA-MB-468, 120 h, Table 4B

**Q.** How did the EC50 (SkBr-3 (Her2+); [1]) turn out when `CC[C@]1(O)C(=O)OCc2c1cc1n(c2=O)Cc2c-1nc1cc(F)c(C)c3c1c2[C@H](NC(=O)c1cccc(N)n1)CC3` [Compound L078-029] was run?
**A.** Its EC50 is 0.8 nM.

**Q.** And the EC50 (MDA-MB-468 (HER2−); [1])?
**A.** The EC50 was 2 nM.

**Q.** With `CC[C@]1(O)C(=O)OCc2c1cc1n(c2=O)Cc2c-1nc1cc(F)c(C)c3c1c2[C@H](NC(=O)C1CNC1)CC3` [Compound L078-030] as the compound, how does the EC50 (SkBr-3 (Her2+); [2]) read?
**A.** Its EC50 is 49.6 nM.

**Q.** What about the EC50 (MDA-MB-468 (HER2−); [3]) of the same compound?
**A.** The EC50 was 57.2 nM.

**Q.** `CC[C@]1(O)C(=O)OCc2c1cc1n(c2=O)Cc2c-1nc1cc(F)c(C)c3c1c2[C@H](NC(=O)[C@H]1CCN1)CC3` [Compound L078-042] was tested. Which EC50 (SkBr-3 (Her2+); [2]) did it give?
**A.** The EC50 was 2.3 nM.

**Q.** And the EC50 (MDA-MB-468 (HER2−); [3])?
**A.** Its EC50 is 5.7 nM.

**Q.** How did the EC50 (SkBr-3 (Her2+); [2]) turn out when `CC[C@]1(O)C(=O)OCc2c1cc1n(c2=O)Cc2c-1nc1cc(F)c(C)c3c1c2[C@H](NC(=O)[C@@H]1CCN1)CC3` [Compound L078-043] was run?
**A.** The EC50 was 1.8 nM.

**Q.** And the EC50 (MDA-MB-468 (HER2−); [3])?
**A.** Its EC50 is 3.7 nM.

**Q.** Which results are given for `CC[C@]1(O)C(=O)OCc2c1cc1n(c2=O)Cc2c-1nc1cc(F)c(C)c3c1c2[C@H](NC(=O)[C@H]1CNCCO1)CC3` [Compound L078-046]?
**A.** EC50 (SkBr-3 (Her2+); [2]): 5.5 nM; EC50 (MDA-MB-468 (HER2−); [3]): 5.7 nM

**Q.** For `CC[C@]1(O)C(=O)OCc2c1cc1n(c2=O)Cc2c-1nc1cc(F)c(C)c3c1c2[C@H](NC(=O)[C@@H]1CNCCO1)CC3` [Compound L078-047], which EC50 (SkBr-3 (Her2+); [2]) is on record?
**A.** Its EC50 is 11 nM.

**Q.** What about the EC50 (MDA-MB-468 (HER2−); [3]) of the same compound?
**A.** Its EC50 is 15.7 nM.

**Q.** With `CC[C@]1(O)C(=O)OCc2c1cc1n(c2=O)Cc2c-1nc1cc(F)c(C)c3c1c2[C@H](NC(=O)[C@@H]1COCCN1)CC3` [Compound L078-048] as the compound, how does the EC50 (SkBr-3 (Her2+); [2]) read?
**A.** The EC50 was 5.6 nM.

**Q.** And the EC50 (MDA-MB-468 (HER2−); [3])?
**A.** The EC50 was 5.7 nM.

**Q.** For `CC[C@]1(O)C(=O)OCc2c1cc1n(c2=O)Cc2c-1nc1cc(F)c(C)c3c1c2[C@H](NC(=O)[C@H]1COCCN1)CC3` [Compound L078-049], which EC50 (SkBr-3 (Her2+); [2]) is on record?
**A.** Its EC50 is 2.3 nM.

**Q.** What about the EC50 (MDA-MB-468 (HER2−); [3]) of the same compound?
**A.** Its EC50 is 4.7 nM.

**Q.** With `CC[C@]1(O)C(=O)OCc2c1cc1n(c2=O)Cc2c-1nc1cc(F)c(C)c3c1c2[C@H](NC(=O)[C@@H]1C[C@@H](F)CN1)CC3` [Compound L078-051] as the compound, how does the EC50 (SkBr-3 (Her2+); [2]) read?
**A.** Its EC50 is 2.8 nM.

**Q.** And the EC50 (MDA-MB-468 (HER2−); [3])?
**A.** The EC50 was 5.4 nM.

**Q.** `CC[C@]1(O)C(=O)OCc2c1cc1n(c2=O)Cc2c-1nc1cc(F)c(C)c3c1c2[C@H](NC(=O)[C@H]1CCCN1)CC3` [Compound L078-065] was tested. Which EC50 (SkBr-3 (Her2+); [2]) did it give?
**A.** Its EC50 is 3.2 nM.

**Q.** And the EC50 (MDA-MB-468 (HER2−); [3])?
**A.** Its EC50 is 6 nM.

**Q.** Which results are given for `CC[C@]1(O)C(=O)OCc2c1cc1n(c2=O)Cc2c-1nc1cc(F)c(C)c3c1c2[C@H](NC(=O)[C@@H]1CCCN1)CC3` [Compound L078-066]?
**A.** EC50 (SkBr-3 (Her2+); [2]): 3 nM; EC50 (MDA-MB-468 (HER2−); [3]): 5.6 nM

**Q.** `CC[C@]1(O)C(=O)OCc2c1cc1n(c2=O)Cc2c-1nc1cc(F)c(C)c3c1c2[C@H](NC(=O)C1CCNCC1)CC3` [Compound L078-081] was tested. Which EC50 (SkBr-3 (Her2+); [1]) did it give?
**A.** Its EC50 is 163 nM.

**Q.** And the EC50 (MDA-MB-468 (HER2−); [1])?
**A.** The EC50 was 81.4 nM.

**Q.** For `CC[C@]1(O)C(=O)OCc2c1cc1n(c2=O)Cc2c-1nc1cc(F)c(C)c3c1c2[C@H](NC(=O)C1(N)COC1)CC3` [Compound L078-088], which EC50 (SkBr-3 (Her2+); [4]) is on record?
**A.** Its EC50 is 2.72 nM.

**Q.** And the EC50 (MDA-MB-468 (HER2−); [5])?
**A.** Its EC50 is 7.32 nM.

**Q.** Which EC50 (SkBr-3 (Her2+); [4]) does the source give for `CC[C@]1(O)C(=O)OCc2c1cc1n(c2=O)Cc2c-1nc1cc(F)c(C)c3c1c2[C@H](NC(=O)C1(N)CCOC1)CC3` (stereo partly drawn) [Compound L078-149] here?
**A.** Its EC50 is 7.71 nM.

**Q.** And the EC50 (MDA-MB-468 (HER2−); [5])?
**A.** The EC50 was 5.01 nM.

**Q.** How did the EC50 (MDA-MB-468 (HER2−); Table 4B) turn out when `CC[C@]1(O)C(=O)OCc2c1cc1n(c2=O)Cc2c-1nc1cc(F)c(C)c3c1c2[C@H](NC(=O)C1(N)CCOCC1)CC3` [Compound L078-150] was run?
**A.** The EC50 was 3.01 nM.

**Q.** Which results are given for `CC[C@@]1(O)C(=O)OCc2c1cc1n(c2=O)Cc2c-1nc1cc(F)c(C)c3c1c2[C@@H](NC(=O)CO)CC3` [Dxd, reference compound]?
**A.** EC50 (HER2-positive SkBr-3): 3.84 nM; EC50 (HER2-negative MDA-MB-468; Table 5): 2.55 nM; EC50 (HER2-negative MDA-MB-468; Table 6): 2.57 nM; EC50 (SkBr-3 (Her2+); [2]): 2.2 nM; EC50 (SkBr-3 (Her2+); [4]): 3.66 nM; EC50 (MDA-MB-468 (HER2−); [3]): 2 nM; EC50 (MDA-MB-468 (HER2−); [5]): 3.16 nM

**Q.** `CC[C@@]1(O)C(=O)OCc2c1cc1n(c2=O)Cc2c-1nc1cc(F)c(C)c3c1c2[C@@H](N)CC3` [Exatecan, exatecan, reference compound] was tested. Which EC50 (SkBr-3 (Her2+); [2]) did it give?
**A.** Its EC50 is 0.69 nM.

**Q.** What about the EC50 (MDA-MB-468 (HER2−); [3]) of the same compound?
**A.** Its EC50 is 1.1 nM.

**Q.** What about the EC50 (MDA-MB-468 (HER2−); [5]) of the same compound?
**A.** The EC50 was 1.99 nM.
